Results taken from ChEMBL document CHEMBL4152276, “Design, synthesis and biological evaluation of N-phenyl-(2,4-dihydroxypyrimidine-5-sulfonamido)benzoyl hydrazide derivatives as thymidylate synthase (TS) inhibitors and as potential antitumor drugs” (Eur J Med Chem, 2018).
The source made the active and inactive calls. The rule behind the calls is not given here.

Columns and labels:
A549 [1] = experiment: Antiproliferative activity against human A549 cells after 24 hrs by MTT assay; type: functional, cell-based; details: A549, 24 h
OVCAR-3 = experiment: Antiproliferative activity against human OVCAR3 cells after 24 hrs by MTT assay; type: functional, cell-based; details: OVCAR-3, 24 h
SGC-7901 = experiment: Antiproliferative activity against human SGC7901 cells after 24 hrs by MTT assay; type: functional, cell-based; details: SGC-7901, 24 h
MDA-MB-231 = experiment: Antiproliferative activity against human MDA-MB-231 cells after 24 hrs by MTT assay; type: functional, cell-based; details: MDA-MB-231, 24 h
A549 [2] = experiment: Antiproliferative activity against human A549 cells at 0.512 uM after 24 hrs by MTT assay relative to control; type: functional
A549 [3] = experiment: Antiproliferative activity against human A549 cells at 1.28 uM after 24 hrs by MTT assay relative to control; type: functional
A549 [4] = experiment: Antiproliferative activity against human A549 cells at 3.2 uM after 24 hrs by MTT assay relative to control; type: functional
A549 [5] = experiment: Antiproliferative activity against human A549 cells at 8 uM after 24 hrs by MTT assay relative to control; type: functional
A549 [6] = experiment: Antiproliferative activity against human A549 cells at 20 uM after 24 hrs by MTT assay relative to control; type: functional
[7] = Selectivity index, ratio of CC50 for HPAEpiC to IC50 for human A549 cells; type: toxicity; details: HPAEpiC cells (CC50) versus A549 cells (IC50)
[8] = Selectivity index, ratio of CC50 for human IOSE80 cells to IC50 for human A549 cells; type: toxicity; details: IOSE80 cells (CC50) versus A549 cells (IC50)
[9] = Selectivity index, ratio of CC50 for human GES1 cells to IC50 for human A549 cells; type: toxicity; details: GES1 cells (CC50) versus A549 cells (IC50)
[10] = Selectivity index, ratio of CC50 for human HTB125 cells to IC50 for human A549 cells; type: toxicity; details: HTB125 cells (CC50) versus A549 cells (IC50)
A549 [11] = experiment: Induction of apoptosis in human A549 cells assessed as early apoptotic cells at 0.5 uM after 24 hrs by annexin V-FITC/propidium iodide staining-based flow cytometric method (reference value: 1.2%); type: functional
A549 [12] = experiment: Induction of apoptosis in human A549 cells assessed as late apoptotic cells at 0.5 uM after 24 hrs by annexin V-FITC/propidium iodide staining-based flow cytometric method (reference value: 1.1%); type: functional
A549 [13] = experiment: Induction of apoptosis in human A549 cells assessed as necrotic cells at 0.5 uM after 24 hrs by annexin V-FITC/propidium iodide staining-based flow cytometric method (reference value: 0%); type: functional
A549 [14] = experiment: Induction of apoptosis in human A549 cells assessed as viable cells at 0.5 uM after 24 hrs by annexin V-FITC/propidium iodide staining-based flow cytometric method (reference value: 97.7%); type: functional; details: A549, 24 h, read-out: Activity
A549 [15] = experiment: Induction of apoptosis in human A549 cells assessed as early apoptotic cells at 1 uM after 24 hrs by annexin V-FITC/propidium iodide staining-based flow cytometric method (reference value: 1.2%); type: functional
A549 [16] = experiment: Induction of apoptosis in human A549 cells assessed as late apoptotic cells at 1 uM after 24 hrs by annexin V-FITC/propidium iodide staining-based flow cytometric method (reference value: 1.1%); type: functional
A549 [17] = experiment: Induction of apoptosis in human A549 cells assessed as necrotic cells at 1 uM after 24 hrs by annexin V-FITC/propidium iodide staining-based flow cytometric method (reference value: 0%); type: functional
A549 [18] = experiment: Induction of apoptosis in human A549 cells assessed as viable cells at 1 uM after 24 hrs by annexin V-FITC/propidium iodide staining-based flow cytometric method (reference value: 97.7%); type: functional; details: A549, 24 h, read-out: Activity
A549 [19] = experiment: Induction of apoptosis in human A549 cells assessed as early apoptotic cells at 1.5 uM after 24 hrs by annexin V-FITC/propidium iodide staining-based flow cytometric method (reference value: 1.2%); type: functional
A549 [20] = experiment: Induction of apoptosis in human A549 cells assessed as late apoptotic cells at 1.5 uM after 24 hrs by annexin V-FITC/propidium iodide staining-based flow cytometric method (reference value: 1.1%); type: functional
A549 [21] = experiment: Induction of apoptosis in human A549 cells assessed as necrotic cells at 1.5 uM after 24 hrs by annexin V-FITC/propidium iodide staining-based flow cytometric method (reference value: 0%); type: functional
A549 [22] = experiment: Induction of apoptosis in human A549 cells assessed as viable cells at 1.5 uM after 24 hrs by annexin V-FITC/propidium iodide staining-based flow cytometric method (reference value: 97.7%); type: functional; details: A549, 24 h, read-out: Activity
A549 [23] = experiment: Induction of apoptosis in human A549 cells assessed as early apoptotic cells at 3 uM after 24 hrs by annexin V-FITC/propidium iodide staining-based flow cytometric method (reference value: 1.2%); type: functional
A549 [24] = experiment: Induction of apoptosis in human A549 cells assessed as late apoptotic cells at 3 uM after 24 hrs by annexin V-FITC/propidium iodide staining-based flow cytometric method (reference value: 1.1%); type: functional
A549 [25] = experiment: Induction of apoptosis in human A549 cells assessed as necrotic cells at 3 uM after 24 hrs by annexin V-FITC/propidium iodide staining-based flow cytometric method (reference value: 0%); type: functional
A549 [26] = experiment: Induction of apoptosis in human A549 cells assessed as viable cells at 3 uM after 24 hrs by annexin V-FITC/propidium iodide staining-based flow cytometric method (reference value: 97.7%); type: functional; details: A549, 24 h, read-out: Activity
A549 [27] = experiment: Induction of apoptosis in human A549 cells assessed as upregulation of bax protein expression at 0.5 to 3 uM after 24 hrs by Western blot method; type: functional, cell-based
A549 [28] = experiment: Induction of apoptosis in human A549 cells assessed as increase in cleaved caspase-3 levels at 0.5 to 3 uM after 24 hrs by Western blot method; type: functional, cell-based
A549 [29] = experiment: Induction of apoptosis in human A549 cells assessed as decrease in ratio of Bcl2/Bax at 0.5 uM after 24 hrs by Western blot method relative to control; type: functional
A549 [30] = experiment: Induction of apoptosis in human A549 cells assessed as decrease in ratio of Bcl2/Bax at 1 uM after 24 hrs by Western blot method relative to control; type: functional
A549 [31] = experiment: Induction of apoptosis in human A549 cells assessed as decrease in ratio of Bcl2/Bax at 1.5 uM after 24 hrs by Western blot method relative to control; type: functional
A549 [32] = experiment: Induction of apoptosis in human A549 cells assessed as decrease in ratio of Bcl2/Bax at 3 uM after 24 hrs by Western blot method relative to control; type: functional

With `O=C(NNC(=O)c1ccccc1NS(=O)(=O)c1cnc(O)nc1O)c1cccc(Cl)c1` the IC50 (A549 [1]) was 1260 nM, the IC50 (OVCAR-3) was 2080 nM and the IC50 (SGC-7901) was 1820 nM. For the same molecule, the IC50 (MDA-MB-231) was 4420 nM, the Activity (A549 [2]) was 35.83% and the Activity (A549 [3]) was 51.21%. It also gave an Activity (A549 [4]) of 55.39%, an Activity (A549 [5]) of 66.28% and an Activity (A549 [6]) of 82.54%. The selectivity ratio [7] was 16.7, the selectivity ratio [8] was 11.3 and the selectivity ratio [9] was 14.2. For the same molecule, the selectivity ratio [10] was 5.73, the Activity (A549 [11]) was 6.9% and the Activity (A549 [12]) was 1.6%. The Activity (A549 [13]) was 0.1%, the viability at 0.5 µM (A549 [14]) was 91.4% and the Activity (A549 [15]) was 9.8%. It also gave an Activity (A549 [16]) of 2.7%, an Activity (A549 [17]) of 0.1% and a viability at 1 µM (A549 [18]) of 87.4%. For the same molecule, the Activity (A549 [19]) was 19.6%, the Activity (A549 [20]) was 2.5% and the Activity (A549 [21]) was 0%. For the same molecule, the viability at 1.5 µM (A549 [22]) was 77.9%, the Activity (A549 [23]) was 35.5% and the Activity (A549 [24]) was 3.9%. For the same molecule, the Activity (A549 [25]) was 0.4%, the viability at 3 µM (A549 [26]) was 60.2% and the Activity (A549 [27]) was “Active”. The Activity (A549 [28]) was “Active”, the “fold change (FC)” value (A549 [29]) was 0.8 and the “fold change (FC)” value (A549 [30]) was 0.54. The “fold change (FC)” value (A549 [31]) was 0.3 and the “fold change (FC)” value (A549 [32]) was 0.17.
